Columns and labels:
[1] = molecular target: T1, E. coli pNAPT-7 cell lysate (Bacillus subtilis, UniProt Q59248); assay: hydrolysis of ester substrates by E. coli pNAPT-7 cell lysate (Example 13); type: biochemical, Bacillus subtilis Thai I-8; conditions: for enzyme activity on substrate: 25° C., 0.1 MOPS pH 7.5, 0.3 mg ester/ml, 2% Tween, 1 mg/ml BSA, 2 hours
T1 construct: ammonium sulphate-precipitated, ultrafiltered lysate; about 31 kDa, untagged wild type
Method: The E. coli pNAPT-7 cell lysate after ammonium sulphate precipitation and ultrafiltration was tested on the hydrolysis of the ethyl ester of R and S-ibuprofen.
The enzyme activity was assayed at 25° C. in 0.1 MOPS buffer pH 7.5 with 0.3 mg of R or S-ibuprofen ethyl ester/ml, 2% Tween and 1 mg/ml BSA. After 2 hours incubation the reaction was stopped by the addition of acetonitrile.
The reaction mixture was analyzed on a HPLC-reversed phase column (Chrompack Polygosil 60D-10CN, 250×4.6 mm), eluted with 34% acetonitrile, 0.05M phosphoric acid pH 3.0 at a flow rate of 1.5 ml/min. Retention times for R and S-ibuprofen and the ethyl ester of R and S-ibuprofen were 5.98 minutes and 11.08 minutes respectively.

[2] = S-enantiomer vs antipode; cited from earlier work

T1 sequence (Q59248 entry or part of it): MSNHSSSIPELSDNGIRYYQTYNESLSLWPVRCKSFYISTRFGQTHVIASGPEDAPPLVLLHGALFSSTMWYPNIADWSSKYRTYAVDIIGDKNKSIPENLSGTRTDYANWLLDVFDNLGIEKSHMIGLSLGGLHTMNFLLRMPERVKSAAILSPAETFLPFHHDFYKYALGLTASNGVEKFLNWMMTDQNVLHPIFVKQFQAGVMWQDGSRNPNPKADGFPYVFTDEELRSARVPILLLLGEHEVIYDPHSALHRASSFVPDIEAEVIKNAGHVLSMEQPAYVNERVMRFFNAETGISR

Compound	enzyme activity on substrate [1]	S-specificity ([1]; Table 12, ibuprofen ethyl ester)	hydrolysis relative to the hydrolysing activity of the methyl ester of S-naproxen ([1]; tested under the same conditions)	in vitro anti-inflammatory activity of the S-enantiomer relative to its antipode [2]
CCOC(=O)[C@H](C)c1ccc(CC(C)C)cc1 [R-ibuprofen ethyl ester, ethyl 2-(4-isobutyl-1-phenyl) propionate]	1865 u/l	–	–	–
CCOC(=O)[C@@H](C)c1ccc(CC(C)C)cc1 [S-ibuprofen ethyl ester, ethyl 2-(4-isobutyl-1-phenyl) propionate]	39600 u/l	95.3%	60%	–
COC(=O)[C@@H](C)c1ccc2cc(OC)ccc2c1 [S-naproxen methyl ester, methyl 2-(6-methoxy-2-naphthyl) propionate]	65000 u/l	–	–	–
CC(C)Cc1ccc([C@H](C)C(=O)O)cc1 [ibuprofen, 2-(4-isobutyl-1-phenyl) propionic acid]	–	–	–	up to 150 times
COc1ccc2cc([C@H](C)C(=O)O)ccc2c1 [naproxen, 2-(6-methoxy-2-naphthyl) propionic acid]	–	–	–	up to 150 times
